Key:
Listeria monocytogenes [1] = experiment: liquid culture growth inhibition assay; type: cell-based; details: all strains tested, 24 and 48 hrs
Procedure: (§1) For these experiments, three strains of Listeria monocytogenes (CWD 95, CWD 246 and CWD 201), three strains of Escherichia coli O157:H7 (AR, AD 305, and AD 317), Salmonella typhimurium (clinical DT 104 isolate H3380), Salmonella enteritidis (clinical isolate H3527, phage type 13A) and Salmonella heidelberg (clinical isolate F5038BG1, Maryland outbreak) were obtained. All strains were stored at −70° C., in Trypticase soy broth containing 10% (v/v) glycerol. Thawed strains were subcultured three times in Trypticase soy broth containing 0.6% (w/v) yeast extract (TSB-YE) (Difco Laboratories, Detroit, Mich.) at 35° C., 18 to 24 h before use.
(§2) For these experiments, sub-cultured bacteria (10^8 cfu Salmonella; 10^9 cfu Listeria monocytogenes and 10^9 cfu E. coli) were each added to culture tubes containing TSB-YE. Three strains of each bacterial species were used, and 1,2,3,4-tetrahydroxybenzene was added to concentrations ranging from 1.4 mM to 14 mM. Three culture tubes were used for each 1,2,3,4-tetrahydroxybenzene concentration. The samples were incubated at 35° C. and observation of growth was recorded at 24 and 48 hrs. Results were reported as the number or tubes positive or negative for growth at 24 h and 48 h.

Salmonella cocktail = experiment: liquid culture growth inhibition assay; type: cell-based
Procedure: as §1, §2

Salmonella typhimurium [2] = experiment: liquid culture growth inhibition assay; type: cell-based; details: all strains tested, 24 and 48 hrs
Procedure: as §1, §2

Salmonella enteritidis = experiment: liquid culture growth inhibition assay; type: cell-based; details: all strains tested, 24 and 48 hrs
Procedure: as §1, §2

Salmonella heidelberg = experiment: liquid culture growth inhibition assay; type: cell-based; details: all strains tested, 24 and 48 hrs
Procedure: as §1, §2

Listeria monocytogenes [3] = experiment: inhibition zone experiment (pour plate, filter disc); type: cell-based; details: 24 hrs, FIG. 3
Procedure: as §1
(§3) To test antimicrobial activity of 1,2,3,4-tetrahydroxybenzene, a pour plate technique was used in which 200 μl samples of subcultured bacteria (either […] colony forming units (CFU)/ml of Salmonella, 109 CFU/ml of L. monocytogenes or 10^9 CFU/ml of E. coli) were transferred to a Petri dish (100 mm×15 mm) to which 20 ml of Trypticase soy agar containing 0.6% (w/v) yeast extract (TSA-YE) was added. The contents of each Petri dish was then mixed by gently forming figure eights with the dish against the bench top. Separately, solutions of 1,2,3,4-tetrahydroxybenzene were prepared at the following concentrations: 1.4 M, 0.14 M, 0.014 M, 0.0014 M, and 0.00014 M. 16 mm filter discs comprising 1,2,3,4-tetrahydroxybenzene each then received 50 μl of a solution comprising one concentration of 1,2,3,4-tetrahydroxybenzene. A single 16 mm disc comprising 50 μl of one concentration of 1,2,3,4-tetrahydroxybenzene was then placed aseptically in the center of each Petri dish. The Petri dishes were then incubated at 35° C. Zones of growth inhibition were determined by observation at 24 hrs. All tests were run in triplicate and averaged.

Escherichia coli = experiment: as above; type: cell-based; details: 24 hrs, FIG. 3
Procedure: as §1, §3

Salmonella typhimurium [4] = experiment: as above; type: cell-based; details: 24 hrs, FIG. 3
Procedure: as §1, §3

E. coli O157:H7 = experiment: liquid culture growth inhibition assay; type: cell-based, Escherichia coli O157:H7; details: all strains tested, 24 and 48 hrs
Procedure: as §1, §2

[5] = antioxidant activity, peroxide value of lard; details: 0.01% w/w, 60° C., FIG. 2
Procedure: (§4) Aliquots of corn oil stripped of endogenous antioxidants were mixed with either 1,2,3,4-tetrahydroxybenzene (OH-Bz), or with a known antioxidant chosen from propyl gallate (PG), tert-butylhydroquinone (TBHQ), and α-tocopherol (Toc). Each antioxidant was at a concentration of 0.01% w/w (i.e., 100 ppm). The mixtures (as well as controls) were maintained at 60° C. Samples of each mixture were removed at a series of time points over a period of 28 days, and the peroxide value of each sample was measured using standard laboratory techniques (FIG. 1). Similarly, aliquots of lard were mixed with either 1,2,3,4-tetrahydroxybenzene (OH-Bz), or with a known antioxidant chosen from propyl gallate (PG), tert-butylhydroquinone (TBHQ), and α-tocopherol (Toc). Each antioxidant was at a concentration of 0.01% w/w. The mixtures (as well as controls) were maintained at 60° C. Samples of each mixture were removed at a series of time points over a period of 26 days, and the peroxide value of each sample was measured using standard laboratory techniques (FIG. 2).

[6] = antioxidant activity, peroxide value of corn oil; details: 0.01% w/w (100 ppm), 60° C., FIG. 1
Procedure: as §4

forestomachs of rats = details: Nera et al., Toxicology 32:197-213 (1984); cited from earlier work
[7] = 50 μl at 1.4 M or 0.14 M on 16 mm filter disc
[8] = concentrations lower than 0.14 M, 16 mm filter disc

| SMILES | concentration at which complete inhibition occurred (Listeria monocytogenes [1]) [mM] | concentration at which complete inhibition occurred (Salmonella cocktail) [mM] | concentration at which complete inhibition occurred (Salmonella typhimurium [2]) [mM] | concentration at which complete inhibition occurred (Salmonella enteritidis) [mM] | concentration at which complete inhibition occurred (Salmonella heidelberg) [mM] | zones of growth inhibition (Listeria monocytogenes [3]; [7]) | zones of growth inhibition (Listeria monocytogenes [3]; [8]) | zones of growth inhibition (Escherichia coli; [7]) | zones of growth inhibition (Escherichia coli; [8]) | zones of growth inhibition (Salmonella typhimurium [4]; [7]) | zones of growth inhibition (Salmonella typhimurium [4]; [8]) | concentration at which complete inhibition occurred (E. coli O157:H7) [mM] | antioxidant activity (peroxide value) ([5]; 26 days) | period over which antioxidant activity is maintained [5] | antioxidant activity (peroxide value) ([6]; 28 days) | period over which antioxidant activity is maintained [6] | carcinogenicity (forestomachs of rats) |
| --- | --- | --- | --- | --- | --- | --- | --- | --- | --- | --- | --- | --- | --- | --- | --- | --- | --- |
| Oc1ccc(O)c(O)c1O [THB, 1,2,3,4-tetrahydroxybenzene] | ≥ 5.6 | ≥ 5.6 | ≥ 5.6 | ≥ 5.6 | ≥ 5.6 | led to appearance of zones of inhibition | did not form zones of inhibition greater than the diameter of the filter | led to appearance of zones of inhibition | did not form zones of inhibition greater than the diameter of the filter | led to appearance of zones of inhibition | did not form zones of inhibition greater than the diameter of the filter | ≥ 5.6 | highly effective antioxidant, equal or superior to PG, TBHQ, PG, and α-tocopherol | at least 26 days | highly effective antioxidant, equal or superior to PG, TBHQ, PG, and α-tocopherol | at least 26 days | – |
| COc1ccc(O)c(C(C)(C)C)c1 [BHA, butylated hydroxyanisole] | – | – | – | – | – | – | – | – | – | – | – | – | – | – | – | – | implicated as a carcinogen promoting formation of tumors in the forestomachs of rats |

— patent publication US20050222312A1, “Antioxidant and antimicrobial agents and methods of use thereof” (priority 2002, published 2005)
